PubChem BioAssay AID1259407 (Chemical Carcinogenesis Research Information System (CCRIS), 2018)
The source made the active and inactive calls. How the calls were made is not given here.

Tested on: CCRIS mutagenicity, Ames/micronucleus/aberration tests
Assay: CCRIS mutagenicity studies
[1] = Test System: AMES SALMONELLA TYPHIMURIUM, Strain/Indicator: TA98, Metabolic Activation: HAMSTER, LIVER, S-9, AROCLOR 1254 (10%), Method: PREINCUBATION
[2] = Test System: AMES SALMONELLA TYPHIMURIUM, Strain/Indicator: TA98, Metabolic Activation: NONE, Method: PREINCUBATION
[3] = Test System: AMES SALMONELLA TYPHIMURIUM, Strain/Indicator: TA98, Metabolic Activation: RAT, LIVER, S-9, AROCLOR 1254 (10%), Method: PREINCUBATION
[4] = Test System: AMES SALMONELLA TYPHIMURIUM, Strain/Indicator: TA100, Metabolic Activation: HAMSTER, LIVER, S-9, AROCLOR 1254 (10%), Method: PREINCUBATION
[5] = Test System: AMES SALMONELLA TYPHIMURIUM, Strain/Indicator: TA100, Metabolic Activation: NONE, Method: PREINCUBATION
[6] = Test System: AMES SALMONELLA TYPHIMURIUM, Strain/Indicator: TA100, Metabolic Activation: RAT, LIVER, S-9, AROCLOR 1254 (10%), Method: PREINCUBATION
[7] = Test System: AMES SALMONELLA TYPHIMURIUM, Strain/Indicator: TA1535, Metabolic Activation: HAMSTER, LIVER, S-9, AROCLOR 1254 (10%), Method: PREINCUBATION
[8] = Test System: AMES SALMONELLA TYPHIMURIUM, Strain/Indicator: TA1535, Metabolic Activation: NONE, Method: PREINCUBATION
[9] = Test System: AMES SALMONELLA TYPHIMURIUM, Strain/Indicator: TA1535, Metabolic Activation: RAT, LIVER, S-9, AROCLOR 1254 (10%), Method: PREINCUBATION
[10] = Test System: AMES SALMONELLA TYPHIMURIUM, Strain/Indicator: TA1537, Metabolic Activation: HAMSTER, LIVER, S-9, AROCLOR 1254 (10%), Method: PREINCUBATION
[11] = Test System: AMES SALMONELLA TYPHIMURIUM, Strain/Indicator: TA1537, Metabolic Activation: NONE, Method: PREINCUBATION
[12] = Test System: AMES SALMONELLA TYPHIMURIUM, Strain/Indicator: TA1537, Metabolic Activation: RAT, LIVER, S-9, AROCLOR 1254 (10%), Method: PREINCUBATION
[13] = Test System: AMES SALMONELLA TYPHIMURIUM, Strain/Indicator: TA98, Metabolic Activation: NONE, Method: STANDARD PLATE
[14] = Test System: AMES SALMONELLA TYPHIMURIUM, Strain/Indicator: TA98, Metabolic Activation: RAT, LIVER, S-9, AROCLOR 1254, Method: STANDARD PLATE
[15] = Test System: AMES SALMONELLA TYPHIMURIUM, Strain/Indicator: TA100, Metabolic Activation: NONE, Method: STANDARD PLATE
[16] = Test System: AMES SALMONELLA TYPHIMURIUM, Strain/Indicator: TA100, Metabolic Activation: RAT, LIVER, S-9, AROCLOR 1254, Method: STANDARD PLATE
[17] = Test System: AMES SALMONELLA TYPHIMURIUM, Strain/Indicator: TA1535, Metabolic Activation: NONE, Method: STANDARD PLATE
[18] = Test System: AMES SALMONELLA TYPHIMURIUM, Strain/Indicator: TA1537, Metabolic Activation: NONE, Method: STANDARD PLATE
[19] = Test System: MOUSE LYMPHOMA, Strain/Indicator: L5178Y (TK+/TK-), Metabolic Activation: NONE, Method: SUSPENSION/PLATE

SMILES: Nc1ncc(/C=C/c2ccc([N+](=O)[O-])o2)nn1
- mutagenic call (Test System: E. COLI, Strain/Indicator: WP2, Metabolic Activation: NONE, Method: SPOT): active; positive
- mutagenic call (Test System: E. COLI, Strain/Indicator: WP2 UVRA, Metabolic Activation: NONE, Method: SPOT): active; positive
- mutagenic call (Test System: E. COLI, Strain/Indicator: WP2 UVRA, Metabolic Activation: NONE, Method: STANDARD PLATE): active; positive

SMILES: CCCCC(CC)COP(OCC(CC)CCCC)OCC(CC)CCCC (centres undefined)
- mutagenic call [1]: inactive; negative
- mutagenic call [2]: inactive; negative
- mutagenic call [3]: inactive; negative
- mutagenic call [4]: inactive; negative
- mutagenic call [5]: inactive; negative
- mutagenic call [6]: inactive; negative
- mutagenic call [7]: inactive; negative
- mutagenic call [8]: inactive; negative
- mutagenic call [9]: inactive; negative
- mutagenic call [10]: inactive; negative
- mutagenic call [11]: inactive; negative
- mutagenic call [12]: inactive; negative

SMILES: CC1=CC(=O)c2nc(C)c3c([nH]c4ccccc43)c2C1=O
- mutagenic call (Test System: AMES SALMONELLA TYPHIMURIUM, Strain/Indicator: TA97, Metabolic Activation: NONE, Method: STANDARD PLATE): active; positive
- mutagenic call (Test System: AMES SALMONELLA TYPHIMURIUM, Strain/Indicator: TA97, Metabolic Activation: RAT, LIVER, S-9, AROCLOR 1254, Method: STANDARD PLATE): active; positive
- mutagenic call [13]: active; positive
- mutagenic call [14]: active; positive
- mutagenic call [15]: active; positive
- mutagenic call [16]: inactive; negative
- mutagenic call (Test System: AMES SALMONELLA TYPHIMURIUM, Strain/Indicator: TA102, Metabolic Activation: NONE, Method: STANDARD PLATE): inactive; negative
- mutagenic call (Test System: AMES SALMONELLA TYPHIMURIUM, Strain/Indicator: TA102, Metabolic Activation: RAT, LIVER, S-9, AROCLOR 1254, Method: STANDARD PLATE): inactive; negative

SMILES: O=c1[nH]cc(/C=C/Br)c(=O)[nH]1
- mutagenic call (Test System: CHINESE HAMSTER V-79, Strain/Indicator: V-79/8-AZAGUANINE, Metabolic Activation: NONE): inactive; negative
- mutagenic call (Test System: UDS RODENT HEPATOCYTES, Strain/Indicator: THY INCORP, Metabolic Activation: NONE): inactive; negative

SMILES: C[Si](Cl)(Cl)Cl
- mutagenic call [13]: inactive; negative
- mutagenic call (Test System: AMES SALMONELLA TYPHIMURIUM, Strain/Indicator: TA98, Metabolic Activation: RAT LIVER S-9, AROCLOR 1254, Method: STANDARD PLATE): inactive; negative
- mutagenic call [15]: inactive; negative
- mutagenic call (Test System: AMES SALMONELLA TYPHIMURIUM, Strain/Indicator: TA100, Metabolic Activation: RAT LIVER S-9, AROCLOR 1254, Method: STANDARD PLATE): inactive; negative
- mutagenic call [17]: inactive; negative
- mutagenic call (Test System: AMES SALMONELLA TYPHIMURIUM, Strain/Indicator: TA1535, Metabolic Activation: RAT LIVER S-9, AROCLOR 1254, Method: STANDARD PLATE): inactive; negative
- mutagenic call [18]: inactive; negative
- mutagenic call (Test System: AMES SALMONELLA TYPHIMURIUM, Strain/Indicator: TA1537, Metabolic Activation: RAT LIVER S-9, AROCLOR 1254, Method: STANDARD PLATE): inactive; negative
- mutagenic call (Test System: AMES SALMONELLA TYPHIMURIUM, Strain/Indicator: TA1538, Metabolic Activation: NONE, Method: STANDARD PLATE): inactive; negative
- mutagenic call (Test System: AMES SALMONELLA TYPHIMURIUM, Strain/Indicator: TA1538, Metabolic Activation: RAT LIVER S-9, AROCLOR 1254, Method: STANDARD PLATE): inactive; negative
- mutagenic call (Test System: E. COLI, Strain/Indicator: P3078 POLA, Metabolic Activation: NONE, Method: SPOT TEST): inactive; negative
- mutagenic call (Test System: E. COLI, Strain/Indicator: P3078 POLA, Metabolic Activation: RAT LIVER S-9, AROCLOR 1254, Method: SPOT TEST): inactive; negative
- mutagenic call (Test System: E. COLI, Strain/Indicator: W3110, Metabolic Activation: NONE, Method: SPOT TEST): inactive; negative
- mutagenic call (Test System: E. COLI, Strain/Indicator: W3110, Metabolic Activation: RAT LIVER S-9, AROCLOR 1254, Method: SPOT TEST): inactive; negative
- mutagenic call [19]: inactive; negative
- mutagenic call (Test System: MOUSE LYMPHOMA, Strain/Indicator: L5178Y (TK+/TK-), Metabolic Activation: RAT, LIVER, S-9, Method: SUSPENSION/PLATE): inactive; negative

SMILES: Nc1ccc2c(c1)C(=O)/C(=N/Nc1ccc(-c3ccc(N/N=C4/C(=O)c5c(N)cc(S(=O)(=O)O)cc5C=C4S(=O)(=O)O)cc3)cc1)C(S(=O)(=O)O)=C2
- mutagenic call [1]: active; positive
- mutagenic call [2]: active; positive
- mutagenic call [3]: inactive; negative
- mutagenic call [4]: inactive; negative
- mutagenic call [5]: inactive; negative
- mutagenic call [6]: inactive; negative
- mutagenic call [7]: inactive; negative
- mutagenic call [8]: inactive; negative
- mutagenic call [9]: inactive; negative
- mutagenic call [10]: inactive; negative
- mutagenic call [11]: active; positive
- mutagenic call [12]: inactive; negative

SMILES: O=C1NC(c2ccc([N+](=O)[O-])s2)Nc2ccccc21 (centres undefined)
- mutagenic call [13]: active; positive
- mutagenic call [15]: active; positive

SMILES: CC(=O)Nc1ccc(S(=O)(=O)O)c2cc(S(=O)(=O)O)c(N=Nc3ccc(N=Nc4ccc(S(=O)(=O)O)cc4)c4ccc(S(=O)(=O)O)cc34)c(O)c12
- mutagenic call (Test System: AMES SALMONELLA TYPHIMURIUM, Strain/Indicator: TA98, Metabolic Activation: HAMSTER, LIVER, S-9, AROCLOR 1254, Method: STANDARD PLATE): inactive; negative
- mutagenic call [13]: inactive; negative
- mutagenic call [14]: inactive; negative
- mutagenic call (Test System: AMES SALMONELLA TYPHIMURIUM, Strain/Indicator: TA100, Metabolic Activation: HAMSTER, LIVER, S-9, AROCLOR 1254, Method: STANDARD PLATE): inactive; negative
- mutagenic call [15]: inactive; negative
- mutagenic call [16]: inactive; negative
- mutagenic call (Test System: AMES SALMONELLA TYPHIMURIUM, Strain/Indicator: TA1535, Metabolic Activation: HAMSTER, LIVER, S-9, AROCLOR 1254, Method: STANDARD PLATE): inactive; negative
- mutagenic call [17]: inactive; negative
- mutagenic call (Test System: AMES SALMONELLA TYPHIMURIUM, Strain/Indicator: TA1535, Metabolic Activation: RAT, LIVER, S-9, AROCLOR 1254, Method: STANDARD PLATE): inactive; negative
- mutagenic call (Test System: AMES SALMONELLA TYPHIMURIUM, Strain/Indicator: TA1537, Metabolic Activation: HAMSTER, LIVER, S-9, AROCLOR 1254, Method: STANDARD PLATE): inactive; negative
- mutagenic call [18]: inactive; negative
- mutagenic call (Test System: AMES SALMONELLA TYPHIMURIUM, Strain/Indicator: TA1537, Metabolic Activation: RAT, LIVER, S-9, AROCLOR 1254, Method: STANDARD PLATE): inactive; negative
- mutagenic call [19]: inactive; negative. reevaluation of results: negative
- mutagenic call (Test System: MOUSE LYMPHOMA, Strain/Indicator: L5178Y (TK+/TK-), Metabolic Activation: RAT, LIVER, S-9, AROCLOR 1254, Method: SUSPENSION/PLATE): active; positive. reevaluation of results: equivocal
